According to US10947196B2, “Beta adrenergic agonist and methods of using the same” (CURASEN THERAPEUTICS, INC., priority 2019, dated 2021):
pEC50: −log10 of the molar value. Where two headings read alike, the source gives them in different places.

Tests used:
Assay type in all cases: cell-based
[1] = molecular target: β1-adrenergic receptor (Homo sapiens (Human), UniProt P08588); assay: cAMP Gs dynamic HTRF assay, β1 expressing CHO cells; conditions: B1-AR; for EC50: read-out: Average pEC50 [Receptor subtype: B1-AR, Cell type: CHO-K1 (HitHunter)] (converted)
β1-adrenergic receptor, sequence (P08588 whole entry, species assumed): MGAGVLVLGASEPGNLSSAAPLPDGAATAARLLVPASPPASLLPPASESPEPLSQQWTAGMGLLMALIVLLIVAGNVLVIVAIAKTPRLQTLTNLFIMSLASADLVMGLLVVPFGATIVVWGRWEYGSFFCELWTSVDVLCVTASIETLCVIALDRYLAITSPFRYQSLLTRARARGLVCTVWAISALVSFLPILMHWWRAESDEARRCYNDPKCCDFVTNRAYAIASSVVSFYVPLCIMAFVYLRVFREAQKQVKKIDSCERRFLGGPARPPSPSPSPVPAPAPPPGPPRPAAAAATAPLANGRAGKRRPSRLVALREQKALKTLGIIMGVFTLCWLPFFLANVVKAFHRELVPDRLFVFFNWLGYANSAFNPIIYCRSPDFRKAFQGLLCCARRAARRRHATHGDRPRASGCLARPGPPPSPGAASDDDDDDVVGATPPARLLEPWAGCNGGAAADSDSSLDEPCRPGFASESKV
Outline: (§1)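 Intracellular cAMP quantified by Eu-donor/d2-acceptor HTRF after 30 min compound exposure at 37° C in stimulation buffer with IBMX. Concentrations ran 10 μM top, 5-fold steps, 10 points. Cell lines: 1321N1 astrocytoma and CHO expressing β1 or β2; EC50 via four-parameter fit, relative efficacy against isoproterenol.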

[2] = molecular target: β2 adrenergic receptor (Homo sapiens (Human), UniProt P07550); assay: cAMP Gs dynamic HTRF assay, β2 expressing CHO cells; conditions: B2-AR; for EC50: read-out: Average pEC50 [Receptor subtype: B2-AR, Cell type: CHO-K1 (HitHunter)] (converted)
β2 adrenergic receptor, sequence (P07550 whole entry, species assumed): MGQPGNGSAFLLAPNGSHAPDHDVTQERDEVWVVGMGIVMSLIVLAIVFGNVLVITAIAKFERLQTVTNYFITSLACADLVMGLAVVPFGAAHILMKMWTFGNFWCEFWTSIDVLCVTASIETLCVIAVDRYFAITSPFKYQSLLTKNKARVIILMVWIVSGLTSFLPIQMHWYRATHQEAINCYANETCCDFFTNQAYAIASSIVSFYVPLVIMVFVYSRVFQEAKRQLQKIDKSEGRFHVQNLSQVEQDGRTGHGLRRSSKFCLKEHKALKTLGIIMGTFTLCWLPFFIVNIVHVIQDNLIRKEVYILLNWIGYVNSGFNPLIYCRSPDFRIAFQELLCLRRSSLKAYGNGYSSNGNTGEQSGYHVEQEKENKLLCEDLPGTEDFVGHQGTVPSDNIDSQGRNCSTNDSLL
Outline: as §1

[3] = molecular target: β2 adrenergic receptors in human astrocytoma cells (1321N1) (Homo sapiens (Human), UniProt P07550); assay: cAMP HTRF assay in human astrocytoma cells (1321N1); conditions: for EC50: Endogenous receptor, 1321N1 cells, read-out: Average pEC50 [Receptor subtype: Endogenous, Cell type: 1321N1] (converted)
β2 adrenergic receptors in human astrocytoma cells (1321N1), sequence (P07550 whole entry): as the sequence (P07550 whole entry, species assumed) above
Protocol: cAMP homogeneous time-resolved fluorescence (HTRF). Compound efficacy was determined using the cAMP Gs dynamic HTRF assay (Cisbio, catalog #62AM4PEC) largely following the manufacturer's instructions, also detailed below.
Compound preparation. […] Standard serial dilution curves were 10-point, 5-fold dilutions starting from a highest concentration of 10 μM. […] Assay plates were centrifuged at 500×g for 10 seconds. Compounds and IBMX were prepared at 2× final dose to compensate for addition of cells.
Cell preparation. 1× stimulation buffer, washing PBS (Dulbecco's phosphate-buffered saline, −Mg −Ca; Caisson Labs, catalog #PBL01), assay PBS (Dulbecco's phosphate-buffered saline, +Mg, +Ca; Caisson Labs, catalog #PBL02) and Versene (0.02% EDTA disodium salt solution in PBS without calcium or magnesium; Caisson Labs, catalog #EDL01) were pre-warmed to 37° C. Cells expressing beta-adrenergic receptor were washed in washing PBS to remove growth medium and then released from the surface by incubating with Versene for 5-10 minutes at 37° C. Cells were harvested using assay PBS, counted manually by hemocytometer or by an automated cell counter, pelleted by centrifugation (200×g, 5 minutes) and resuspended in 37° C. 1× stimulation buffer to a final density of 1.5×10^6 cells/mL. 5 μL of the suspended cell solution (7500 cell total) were added to all wells of the 384 well assay plate, the assay plate was covered with an Axygen® plate seal (Corning PCR-SP) and incubated in a humidified 37° C. environment supplemented with 5% CO2 for 30 minutes.
HTRF reagent addition, reading and data analysis. After 30 minutes of cell stimulation with test compound, the assay plates were centrifuged at 500×g for 10 seconds, and incubation was stopped with the addition of 5 μL cAMP-D2 acceptor, diluted 1:21 in detection and lysis buffer 2 (Cisbio 62CL2FDF) was added to all cells. Subsequently, 5 μL Anti-cAMP-Eu Donor, diluted 1:21 in detection and lysis buffer 2, was added to cells. Plates were sealed and reactions gently ‘vortexed’ at 900 rpm on a Heidolph Titramax 1000 for at least 30 minutes at room temperature. Plates were centrifuged again at 500×g for 10 seconds, and HTRF was measured using a Tecan Spark plate reader at 50 flashes per well. […] Potency estimates (EC50) were derived from the four-parameter nonlinear regression of the concentration-effect curve and an estimate of relative efficacy was determined by comparing the magnitude of the test compound HTRF signal window (min−max dose) with the signal window of the full agonist control, isoproterenol.

CC(C)(C)NCC(O)c1cc(C#N)cc(C(F)(F)F)n1 (centres unmarked) [Compound 03-181]
EC50 ([1]; CHO-K1 (HitHunter)): > 1000 nM
pEC50 ([1]; CHO-K cells, read-out: Average EC50 [Receptor subtype: B1-AR, Cell type: CHO-K]): < 6.00
EC50 ([2]; CHO-K1 (HitHunter)): 100 to 1000 nM
pEC50 ([2]; CHO-K cells, read-out: Average EC50 [Receptor subtype: B2-AR, Cell type: CHO-K]): 6.00 to 7.00
EC50 [3]: 100 to 1000 nM

CC(C)(C)NC[C@H](O)c1cccc(NC2CC2)n1 [Compound 03-189]
EC50 ([1]; CHO-K1 (HitHunter)): 10 to 100 nM
EC50 ([2]; CHO-K1 (HitHunter)): < 10 nM
EC50 [3]: 10 to 100 nM

CC(C)(C)NC[C@H](O)c1cccc(NC2CCC2)n1 [Compound 03-190]
EC50 ([1]; CHO-K1 (HitHunter)): 10 to 100 nM
EC50 ([2]; CHO-K1 (HitHunter)): < 10 nM
EC50 [3]: < 10 nM

CC(C)(C)NC[C@H](O)c1cccc(NC2CCCC2)n1 [Compound 03-191]
EC50 ([1]; CHO-K1 (HitHunter)): 10 to 100 nM
EC50 ([2]; CHO-K1 (HitHunter)): < 10 nM
EC50 [3]: < 10 nM

CC(C)Nc1cccc([C@@H](O)CNC(C)(C)C)n1 [Compound 03-192]
EC50 ([1]; CHO-K1 (HitHunter)): 10 to 100 nM
EC50 ([2]; CHO-K1 (HitHunter)): < 10 nM
EC50 [3]: 10 to 100 nM

CC(C)(C)NC[C@H](O)c1cccc(Nc2ccccc2)n1 [Compound 03-193]
EC50 ([1]; CHO-K1 (HitHunter)): < 10 nM
EC50 ([2]; CHO-K1 (HitHunter)): < 10 nM
EC50 [3]: < 10 nM

CC(C)(C)NC[C@H](O)c1cccc(Oc2ccccc2)n1 [Compound 03-195]
EC50 ([1]; CHO-K1 (HitHunter)): 100 to 1000 nM
EC50 ([2]; CHO-K1 (HitHunter)): 10 to 100 nM
EC50 [3]: 10 to 100 nM

CC(C)(C)NC[C@H](O)c1cccc(C2=CCCC2)n1 [Compound 03-197]
EC50 ([1]; CHO-K1 (HitHunter)): 10 to 100 nM
EC50 ([2]; CHO-K1 (HitHunter)): < 10 nM
EC50 [3]: < 10 nM

CC(C)(C)NC[C@H](O)c1cccc(C(C)(C)C)n1 [Compound 03-209]
EC50 ([1]; CHO-K1 (HitHunter)): < 10 nM
EC50 ([2]; CHO-K1 (HitHunter)): < 10 nM
EC50 [3]: < 10 nM

Cn1cc(-c2cccc([C@@H](O)CNC(C)(C)C)n2)cn1 [Compound 03-215]
EC50 ([1]; CHO-K1 (HitHunter)): 100 to 1000 nM
EC50 ([2]; CHO-K1 (HitHunter)): < 10 nM
EC50 [3]: 10 to 100 nM

CC(C)(C)NC[C@@H](O)c1cccc(-n2ccnc2)n1 [Compound 03-228]
EC50 ([1]; CHO-K1 (HitHunter)): 10 to 100 nM
EC50 ([2]; CHO-K1 (HitHunter)): < 10 nM
EC50 [3]: < 10 nM

CC(C)(C)NC[C@@H](O)c1cccc(Cl)n1 [Compound 03-230]
EC50 ([1]; CHO-K1 (HitHunter)): 10 to 100 nM
EC50 ([2]; CHO-K1 (HitHunter)): 10 to 100 nM
EC50 [3]: 100 to 1000 nM

CC(C)(C)NC[C@H](O)c1cccc(C2CCCC2)n1 [Compound 03-237]
EC50 ([1]; CHO-K1 (HitHunter)): 10 to 100 nM
EC50 ([2]; CHO-K1 (HitHunter)): < 10 nM
EC50 [3]: < 10 nM

C#Cc1cccc([C@H](O)CNC(C)(C)C)n1 [Compound 03-238]
EC50 ([1]; CHO-K1 (HitHunter)): 100 to 1000 nM
EC50 ([2]; CHO-K1 (HitHunter)): 10 to 100 nM
EC50 [3]: 100 to 1000 nM

C=CCc1ncccc1[C@@H](O)CNC(C)(C)C [Compound 03-243]
EC50 ([1]; CHO-K1 (HitHunter)): > 1000 nM
EC50 ([2]; CHO-K1 (HitHunter)): 10 to 100 nM
EC50 [3]: 100 to 1000 nM

Cc1ccc([C@@H](O)CNC(C)(C)C)cn1 [Compound 03-248]
EC50 ([1]; CHO-K1 (HitHunter)): 10 to 100 nM
EC50 ([2]; CHO-K1 (HitHunter)): 10 to 100 nM
EC50 [3]: 10 to 100 nM

COc1ccc(C[C@@H](C)NC[C@H](O)c2ccc(C)nc2)cc1 [Compound 03-249]
EC50 ([1]; CHO-K1 (HitHunter)): < 10 nM
EC50 ([2]; CHO-K1 (HitHunter)): < 10 nM
EC50 [3]: < 10 nM

COc1ccc(C[C@@H](C)NC[C@H](O)c2ccc(OC)nc2C)cc1 [Compound 03-253]
pEC50 ([1]; Average pEC50 [Receptor subtype: B1-AR, Cell type: CHO-K1 (HitHunter)], CHO-K1 (HitHunter)): < 6.00
pEC50 ([2]; Average pEC50 [Receptor subtype: B2-AR, Cell type: CHO-K1 (HitHunter)], CHO-K1 (HitHunter)): 7.00 to 8.00
pEC50 [3]: 6.00 to 7.00

COc1ccc(C[C@@H](C)NC[C@H](O)c2cccc(OC(F)(F)F)n2)cc1 [Compound 03-257]
EC50 ([1]; CHO-K1 (HitHunter)): 10 to 100 nM
EC50 ([2]; CHO-K1 (HitHunter)): < 10 nM
EC50 [3]: < 10 nM

Cc1ncc(Cl)cc1[C@@H](O)CNC(C)(C)C [Compound 03-267]
EC50 ([1]; CHO-K1 (HitHunter)): 100 to 1000 nM
EC50 ([2]; CHO-K1 (HitHunter)): 10 to 100 nM
EC50 [3]: 100 to 1000 nM

CC(C)(C)NC[C@H](O)c1cccc(NC2CC(F)C2)n1 (some centres unmarked) [Compound 03-272]
EC50 ([1]; CHO-K1 (HitHunter)): < 10 nM
EC50 ([2]; CHO-K1 (HitHunter)): < 10 nM
EC50 [3]: < 10 nM
